For 15 compounds, Emax results are on record in patent US9732080B2 (Vertex Pharmaceuticals Incorporated, priority 2006, dated 2017).

Molecules are shown by their SMILES.

The target in the assay is T1, ΔF508-CFTR (Homo sapiens, UniProt P13569, DEL508-508).
T1 construct: expressed in transfected cells
T1 sequence (P13569 with tags, fused parts or gaps DEL508-508): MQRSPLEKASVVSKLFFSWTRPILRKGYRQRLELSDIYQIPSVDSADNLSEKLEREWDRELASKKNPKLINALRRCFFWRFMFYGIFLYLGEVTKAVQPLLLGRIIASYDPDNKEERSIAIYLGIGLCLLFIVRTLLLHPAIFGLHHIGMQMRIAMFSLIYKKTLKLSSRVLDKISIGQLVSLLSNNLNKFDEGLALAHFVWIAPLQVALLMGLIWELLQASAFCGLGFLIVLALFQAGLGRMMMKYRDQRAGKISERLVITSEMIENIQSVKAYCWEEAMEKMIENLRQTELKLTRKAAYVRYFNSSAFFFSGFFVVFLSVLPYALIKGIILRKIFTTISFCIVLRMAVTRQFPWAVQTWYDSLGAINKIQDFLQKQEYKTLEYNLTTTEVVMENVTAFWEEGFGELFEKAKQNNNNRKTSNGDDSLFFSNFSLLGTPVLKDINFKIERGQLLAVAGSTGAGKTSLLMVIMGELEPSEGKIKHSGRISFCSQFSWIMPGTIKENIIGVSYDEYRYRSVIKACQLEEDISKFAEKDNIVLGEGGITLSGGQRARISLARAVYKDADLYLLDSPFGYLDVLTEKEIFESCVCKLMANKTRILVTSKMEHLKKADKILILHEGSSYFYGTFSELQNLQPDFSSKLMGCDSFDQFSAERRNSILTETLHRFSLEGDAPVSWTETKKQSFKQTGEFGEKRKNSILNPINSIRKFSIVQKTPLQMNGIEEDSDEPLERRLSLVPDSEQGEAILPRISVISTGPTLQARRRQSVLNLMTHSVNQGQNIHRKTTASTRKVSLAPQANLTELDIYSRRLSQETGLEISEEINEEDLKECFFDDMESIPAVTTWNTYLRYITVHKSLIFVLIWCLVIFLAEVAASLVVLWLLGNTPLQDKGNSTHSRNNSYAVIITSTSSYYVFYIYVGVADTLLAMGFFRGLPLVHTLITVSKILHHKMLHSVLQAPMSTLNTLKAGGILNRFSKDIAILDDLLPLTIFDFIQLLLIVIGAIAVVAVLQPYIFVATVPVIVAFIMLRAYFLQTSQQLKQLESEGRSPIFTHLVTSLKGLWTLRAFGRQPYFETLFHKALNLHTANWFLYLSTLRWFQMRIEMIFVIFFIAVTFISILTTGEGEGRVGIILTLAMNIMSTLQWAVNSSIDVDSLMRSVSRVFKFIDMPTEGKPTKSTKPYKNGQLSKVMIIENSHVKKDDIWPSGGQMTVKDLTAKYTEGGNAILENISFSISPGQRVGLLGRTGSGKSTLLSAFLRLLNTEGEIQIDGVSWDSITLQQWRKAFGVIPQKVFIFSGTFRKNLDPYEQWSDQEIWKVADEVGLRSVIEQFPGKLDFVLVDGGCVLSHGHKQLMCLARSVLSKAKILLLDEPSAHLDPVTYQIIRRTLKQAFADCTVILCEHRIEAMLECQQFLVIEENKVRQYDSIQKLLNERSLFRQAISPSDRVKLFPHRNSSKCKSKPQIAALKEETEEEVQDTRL
The assay is described as follows: Membrane potential optical assay, identification of correction compounds (ΔF508-CFTR correction). Format: cell-based. As to conditions: PercentActivity; NIH3T3 mouse fibroblasts stably expressing ΔF508-CFTR; 16-24 hrs with compound; read-out: Binned Max Efficacy. The source says:
Membrane potential optical methods for assaying ΔF508-CFTR modulation properties of compounds.
The assay utilizes fluorescent voltage sensing dyes to measure changes in membrane potential using a fluorescent plate reader (e.g., FLIPR III, Molecular Devices, Inc.) as a readout for increase in functional ΔF508-CFTR in NIH 3T3 cells. The driving force for the response is the creation of a chloride ion gradient in conjunction with channel activation by a single liquid addition step after the cells have previously been treated with compounds and subsequently loaded with a voltage sensing dye.
To identify small molecules that correct the trafficking defect associated with ΔF508-CFTR; a single-addition HTS assay format was developed. Assay Plates containing cells are incubated for ˜2-4 hours in tissue culture incubator at 37° C., 5% CO2, 90% humidity. Cells are then ready for compound exposure after adhering to the bottom of the assay plates.
The cells were incubated in serum-free medium for 16-24 firs in tissue culture incubator at 37° C., 5% CO2, 90% humidity in the presence or absence (negative control) of test compound. The cells were subsequently rinsed 3× with Krebs Ringers solution and loaded with a voltage sensing redistribution dye. To activate ΔF508-CFTR, 10 μM forskolin and the CFTR potentiator, genistein (20 μM), were added along with Cl^−-free medium to each well. The addition of Cl^−-free medium promoted Cl^− efflux in response to ΔF508-CFTR activation and the resulting membrane depolarization was optically monitored using voltage sensor dyes.
Bath Solution #1: (in mM) NaCl 160, KCl 4.5, CaCl2 2, MgCl2 1, HEPES 10, pH 7.4 with NaOH.
Chloride-free bath solution: Chloride salts in Bath Solution #1 are substituted with gluconate salts.
NIH3T3 mouse fibroblasts stably expressing ΔF508-CFTR are used for optical measurements of membrane potential. The cells are maintained at 37° C. in 5% CO2 and 90% humidity in Dulbecco's modified Eagle's medium supplemented with 2 mM glutamine, 10% fetal bovine serum, 1×NEAA, β-ME, 1× pen/strep, and 25 mM HEPES in 175 cm^2 culture flasks. For all optical assays, the cells were seeded at ˜20,000/well in 384-well matrigel-coated plates and cultured for 2 hrs at 37° C. before culturing at 27° C. for 24 hrs. for the potentiator assay. For the correction assays, the cells are cultured at 27° C. or 37° C. with and without compounds for 16-24 hours.
For `CC(C)(C)c1cc2cc(NC(=O)C3(c4ccc5c(c4)OC(F)(F)O5)CC3)ncc2[nH]1` [Compound 14, N-(2-tert-butyl-1H-pyrrolo[2,3-c]pyridin-5-yl)-1-(2,2-difluorobenzo[d][1,3]dioxol-5-yl)cyclopropanecarboxamide], the Emax was more than 100%.

As to `CC(C)(C)c1cc2cc(NC(=O)C3(c4ccc5c(c4)OCO5)CC3)ncc2[nH]1` [Compound 8], the Emax lay within 25 to 100%.

With `CC1(c2cc3cc(NC(=O)C4(c5ccc6c(c5)OC(F)(F)O6)CC4)ncc3[nH]2)CC1` [Compound 10, 1-(2,2-difluorobenzo[d][1,3]dioxol-5-yl)-N-(2-(1-methylcyclopropyl)-1H-pyrrolo[2,3-c]pyridin-5-yl)cyclopropanecarboxamide], the Emax was more than 100%.

For the compound `COc1ccc(C2(C(=O)Nc3cnc4[nH]c(C(C)(C)C)cc4c3)CC2)cc1` [Compound 3, N-(2-tert-butyl-1H-pyrrolo[2,3-b]pyridin-5-yl)-1-(4-methoxyphenyl)cyclopropanecarboxamide], the Emax lay in the range of 25 to 100%.

For `COc1ccc(C2(C(=O)Nc3ccc4[nH]c(C(C)(C)C)cc4n3)CC2)cc1` [Compound 2, N-(2-tert-butyl-1H-pyrrolo[3,2-b]pyridin-5-yl)-1-(4-methoxyphenyl)cyclopropanecarboxamide], the Emax fell in the range of 25 to 100%.

As to `CC(C)(C)c1cc2cc(NC(=O)C3(c4ccc5c(c4)OCO5)CC3)cnc2[nH]1` [Compound 6], the Emax was more than 100%.

Regarding `CC(C)(C)c1cc2cc(NC(=O)C3(c4ccc5c(c4)OC(F)(F)O5)CC3)ncc2n1CCO` [Compound 15, N-(2-tert-butyl-1-(2-hydroxyethyl)-1H-pyrrolo[2,3-c]pyridin-5-yl)-1-(2,2-difiuorobenzo[d][1,3]dioxol-5-yl)cyclopropanecarboxamide], the Emax was more than 100%.

On to `O=C(Nc1cc2cc(C3CCC3)[nH]c2cn1)C1(c2ccc3c(c2)OC(F)(F)O3)CC1` [Compound 11, N-(2-cyclobutyl-1H-pyrrolo[2,3-c]pyridin-5-yl)-1-(2,2-difluorobenzo[d][1,3]dioxol-5-yl)cyclopropanecarboxamide], for which the Emax is more than 100%.

As for `CC(C)(C)c1cc2nc(NC(=O)C3(c4ccc5c(c4)OCO5)CC3)ccc2[nH]1` [Compound 7], the Emax was 25 to 100%.

Take `COc1cccc(C2(C(=O)Nc3ccc4[nH]c(C(C)(C)C)cc4n3)CC2)c1` [Compound 4, N-(2-tert-butyl-1H-pyrrolo[3,2-b]pyridin-5-yl)-1-(3-methoxyphenyl)cyclopropanecarboxamide]: the Emax lay in the range of 25 to 100%.

As to `COc1cccc(C2(C(=O)Nc3cnc4[nH]c(C(C)(C)C)cc4c3)CC2)c1` [Compound 5], the Emax fell in the range of 25 to 100%.

As to `CCc1cc2cc(NC(=O)C3(c4ccc5c(c4)OC(F)(F)O5)CC3)ncc2[nH]1` [Compound 9, 1-(2,2-difluorobenzo[d][1,3]dioxol-5-yl)-N-(2-ethyl-1H-pyrrolo[2,3-c]pyridin-5-yl)cyclopropanecarboxamide], the Emax was more than 100%.

On to `O=C(Nc1ccc2cc[nH]c2n1)C1(c2ccc3c(c2)OCO3)CC1` [Compound 1, 1-(benzo[d][1,3]dioxol-5-yl)-N-(1H-pyrrolo[2,3-b]pyridin-6-yl)cyclopropanecarboxamide], for which the Emax was more than 100%.

As for `CC(C)(C)c1cc2nc(NC(=O)C3(c4ccc5c(c4)OC(F)(F)O5)CC3)ccc2[nH]1` [Compound 12, N-(2-tert-butyl-1H-pyrrolo[3,2-b]pyridin-5-yl)-1-(2,2-difluorobenzo[d][1,3]dioxol-5-yl)cyclopropanecarboxamide], the Emax was more than 100%.

Consider `CC(C)(C)c1cc2cc(NC(=O)C3(c4ccc5c(c4)OC(F)(F)O5)CC3)cnc2[nH]1` [Compound 13, N-(2-tert-butyl-1H-pyrrolo[2,3-b]pyridin-5-yl)-1-(2,2-difluorobenzo[d][1,3]dioxol-5-yl)cyclopropanecarboxamide], for which the Emax is more than 100%.
